Results: US20090215796A1, “Compositions, Kits and Methods for a Titration Schedule for Pardoprunox Compounds” (Solvay Pharmaceuticals B.V., priority 2008, published 2009)

Assays:
human subjects = test: Clinical investigations on pardoprunox hydrochloride (general tolerability); format: in vivo
dopamine D2 receptor = dopamine D2 receptor (Homo sapiens, UniProt P14416); details: cited from earlier work
[1] = tested on: subjects with PD characterized by motor fluctuations; test: Safety study S308.3.005, two titration schedules of pardoprunox as adjunctive treatment to L-dopa; format: in vivo, human
Procedure: In this study, primarily a safety study, 62 subjects with PD characterized by motor fluctuations were randomized to one of three different treatment arms, consisting of two pardoprunox treatment arms (total daily dose 0.3-42 mg three times daily [tid]; groups 1 [25 subjects] and 2 [26 subjects]) and one placebo arm [11 subjects]). The study included a seven-week ascending dose period of pardoprunox as adjunctive treatment to L-dopa. The effect of two different titration schedules was investigated on the safety and tolerability profile, as well as the need and time required for L-dopa dose and/or regimen adjustments (see Table 4). The difference between the two pardoprunox groups was in titration steps taken to achieve at the same time the main study dose levels, namely Group 1—weekly, larger dose increments versus Group 2—with every 3 and 4-days smaller dose steps to the same ‘end of week’ pardoprunox main doses. In the group with the more gradual titration more than 92% of the subjects (24 out of 26) reached doses of 18 mg/day or higher, and 65% (17 out of 26 subjects) reached the highest dose level of 42 mg/day.

subjects with early PD = test: Double-blind, placebo-controlled proof of principle study S308.2.004, pardoprunox monotherapy; format: in vivo, human
Procedure: In a double-blind, placebo-controlled proof of principle (PoP) study (S308.2.004), the effects of pardoprunox on efficacy, safety and tolerability as monotherapy in early PD were investigated including 138 randomized and treated subjects. Following a fixed-flexible titration period (average length of 24 days), subjects were kept on maintenance dose levels for three weeks (9, 12, 15, 18, 24, 30, 36 or 45 mg/day). Study medication was taken orally three times daily (tid), in the morning, at noon and in the evening, with any missed doses not taken subsequently.
The dose of pardoprunox was progressively titrated from 0.3 mg/day to 9 mg/day according to a predefined schedule within 10 days, and to 30 mg/day within 20 days, by giving single dose unit or a combination of single dose unit. Daily doses were given over the day in the form of three dosage units. Up to the dose of 30 mg/day the titration was based on tolerability only, meaning that every next day (until step 10) or every other day (step 10-14) the dose was to be increased with one step if well-tolerated by the patient (see Table 3). […] From that moment, the patient had to stay on that lower dose level for 2 full days (at least 6 administrations) before trying the higher level again. The first administration of the higher dose had to be done in the morning. For a given titration step only one subsequent second attempt was allowed to reach the higher dose level. In total, three dose adjustments (on different titration steps) were allowed. If patients still could not reach a certain dose level after two sequential attempts and that dose level was below the minimum required dose level of 9 mg/day, they were not allowed to enter the maintenance phase. If a dose level of at least 9 mg/day has already been reached, they were allowed to maintain that dose level for the entire maintenance phase. Patients who reached the 30 mg/day dose could continue to escalate to 45 mg if tolerability allowed, and if further efficacy was expected. […]

animal models = details: cited from earlier work
5-HT1A = biological target: T1, 5-HT1A (Homo sapiens, UniProt P08908); details: cited from earlier work
T1 sequence (P08908 1-422): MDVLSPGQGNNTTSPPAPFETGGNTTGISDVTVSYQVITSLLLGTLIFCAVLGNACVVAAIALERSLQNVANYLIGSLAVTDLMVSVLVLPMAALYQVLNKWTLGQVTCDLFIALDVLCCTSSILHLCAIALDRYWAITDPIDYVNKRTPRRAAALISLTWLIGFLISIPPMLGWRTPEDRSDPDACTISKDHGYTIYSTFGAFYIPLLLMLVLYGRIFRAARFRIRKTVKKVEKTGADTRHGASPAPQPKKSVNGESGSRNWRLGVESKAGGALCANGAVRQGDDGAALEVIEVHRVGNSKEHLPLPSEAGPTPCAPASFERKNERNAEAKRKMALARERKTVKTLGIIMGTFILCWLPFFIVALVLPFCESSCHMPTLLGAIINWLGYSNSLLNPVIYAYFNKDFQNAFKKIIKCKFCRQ

early PD patients = test: First pivotal study S308.3.001, fixed and flexible dose arms versus placebo; format: in vivo, human
Procedure: In the first pivotal study in early PD patients (study S308.3.001), the efficacy and safety of two fixed dose arms of pardoprunox (6 mg/day [n=115; Group 1] and 12 mg/day [n=118; Group 2]), and a flexible dose arm (12-42 mg/day [n=116; Group 3]) was compared to placebo (n=119) (see Table 6 for titration schedules used).

dopamine D3 receptor = dopamine D3 receptor (Homo sapiens, UniProt P35462); details: cited from earlier work
Chain of dopamine D3 receptor (P35462 whole entry): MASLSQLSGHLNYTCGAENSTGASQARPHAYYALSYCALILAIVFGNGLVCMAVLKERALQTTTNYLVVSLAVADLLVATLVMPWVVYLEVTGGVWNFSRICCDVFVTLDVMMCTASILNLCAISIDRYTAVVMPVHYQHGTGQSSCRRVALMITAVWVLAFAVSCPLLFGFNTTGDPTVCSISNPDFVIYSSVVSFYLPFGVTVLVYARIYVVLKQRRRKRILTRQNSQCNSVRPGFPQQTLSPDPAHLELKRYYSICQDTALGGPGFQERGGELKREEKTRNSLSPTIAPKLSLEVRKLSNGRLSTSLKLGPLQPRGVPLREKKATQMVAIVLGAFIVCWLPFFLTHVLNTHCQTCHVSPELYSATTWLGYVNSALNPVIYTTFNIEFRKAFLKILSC

Chain of dopamine D2 receptor (P14416 whole entry): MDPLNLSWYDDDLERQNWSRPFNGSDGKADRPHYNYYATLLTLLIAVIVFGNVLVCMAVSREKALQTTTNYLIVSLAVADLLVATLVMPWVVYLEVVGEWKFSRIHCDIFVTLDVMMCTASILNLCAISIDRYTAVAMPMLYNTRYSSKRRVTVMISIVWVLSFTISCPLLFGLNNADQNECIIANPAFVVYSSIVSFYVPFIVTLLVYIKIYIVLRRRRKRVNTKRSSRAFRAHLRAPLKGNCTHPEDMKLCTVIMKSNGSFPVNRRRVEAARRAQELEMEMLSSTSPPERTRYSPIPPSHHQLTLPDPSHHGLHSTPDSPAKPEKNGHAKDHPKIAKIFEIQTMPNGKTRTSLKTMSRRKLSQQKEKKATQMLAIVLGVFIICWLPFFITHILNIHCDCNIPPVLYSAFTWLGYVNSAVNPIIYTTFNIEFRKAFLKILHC

Compound: CN1CCN(c2cccc3[nH]c(=O)oc23)CC1.Cl [pardoprunox hydrochloride, 7-(4-methyl)-1-piperazinyl-2(3H)-benzoxazolone hydrochloride]
- tolerability (human subjects; clinical investigations): well tolerated

Compound: CN1CCN(c2cccc3[nH]c(=O)oc23)CC1 [pardoprunox, 7-(4-methyl)-1-piperazinyl-2(3H)-benzoxazolone]
- tolerability (human subjects; healthy human subjects): relatively well tolerated
- agonist activity at dopamine D2 receptor (dopamine D2 receptor): partial dopamine D2 and D3 receptor agonist
- doses or titration steps not tolerated (defined as causing more than 20% drop outs) ([1]; 0.3-42 mg/day tid): no particular doses or titration steps that could not be tolerated
- subjects who terminated the study due to treatment related Adverse Effects ([1]; between 18 and 30 mg/day, group with smaller dose increments (four subjects)): 15%
- drop-out rate ([1]; group with the larger, weekly dose increments (Group 1) compared with Group 2 and placebo, FIG. 1): much higher drop-out rate
- subjects who reached the highest dose level of 42 mg/day ([1]; group with the more gradual titration (Group 2), 17 out of 26 subjects): 65%
- drop out rate due to treatment related Adverse Effects ([1]; up to the 18 mg/day dose, group with smaller dose increments): 4%
- efficacy between subgroups treated with 9-15 mg/day, 18-30 mg/day and >30-45 mg/day (subjects with early PD; explorative evaluation, dose/effect plot): did not provide any clear differences in efficacy
- subjects who reached the highest dose level of 45 mg/day (subjects with early PD; flexible titration based on tolerability, tid oral): approximately 16%
- subjects treated with pardoprunox doses of ≧30 mg/day (subjects with early PD; flexible titration based on tolerability, tid oral, maintenance 9-45 mg/day): Approximately 40%
- anti-PD effect (animal models): marked and long-lasting anti-PD effect
- antidepressant and anxiolytic efficacy (animal models): evidence of antidepressant and anxiolytic efficacy
- agonist activity at 5-HT1A (5-HT1A): full 5-HT1A agonist activity
- tolerability (early PD patients; 6 mg/day fixed dose group versus higher dose groups): better than that of the higher dose groups
- primary outcome measure UPDRS motor score versus placebo (early PD patients; all active treatment arms: 6 mg/day, 12 mg/day, 12-42 mg/day): statistically superior to placebo
- minimum effective dose (early PD patients; early PD patient population, conclusion from study): < 12 mg/day
- agonist activity at dopamine D3 receptor (dopamine D3 receptor): partial dopamine D2 and D3 receptor agonist
